# From article PMC3264828 (European Journal of Medicinal Chemistry, 2011)
# Experiments:
# [1] = biological target: D1-like receptors (Sus scrofa, UniProt P50130); experiment: Competition binding with [3H]SCH-23390 in porcine striatal homogenates; conditions: porcine striatal preparations; for decrease in D1 affinity compared to 2: relative to DOX (2)
# [2] = biological target: D1 dopamine receptor mutant L190A (Homo sapiens, UniProt P21728, L190A); experiment: Mutagenesis experiments of the D1 dopamine receptor; format: binding; conditions: residue in extracellular loop 2; to be published elsewhere
# [3] = tested on: prefrontal cortex; conditions: cited from earlier work
# [4] = tested on: D1 receptor; conditions: cited from earlier work
# [5] = tested on: aged monkeys; conditions: cited from earlier work
# [6] = tested on: in vivo model of Parkinson's disease; conditions: African green monkeys; cited from earlier work
# [7] = tested on: D1-like receptors; conditions: cited from earlier work
# [8] = tested on: D1; conditions: 2-substituted DHX analogues; cited from earlier work
# Sequence of D1-like receptors (Sus scrofa, UniProt P50130) (P50130 whole entry): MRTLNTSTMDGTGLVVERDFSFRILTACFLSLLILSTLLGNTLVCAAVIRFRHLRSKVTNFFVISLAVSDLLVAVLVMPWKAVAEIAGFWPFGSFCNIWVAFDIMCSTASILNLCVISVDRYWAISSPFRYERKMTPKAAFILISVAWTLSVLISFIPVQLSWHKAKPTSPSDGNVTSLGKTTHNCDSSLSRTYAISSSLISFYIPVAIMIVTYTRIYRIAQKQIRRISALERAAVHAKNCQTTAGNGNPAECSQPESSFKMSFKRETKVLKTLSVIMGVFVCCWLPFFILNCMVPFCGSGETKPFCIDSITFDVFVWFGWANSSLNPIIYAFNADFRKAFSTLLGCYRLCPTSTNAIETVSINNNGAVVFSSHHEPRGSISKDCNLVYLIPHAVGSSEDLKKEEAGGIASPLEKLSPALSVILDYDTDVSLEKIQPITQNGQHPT
# Sequence of D1 dopamine receptor mutant L190A (P21728 whole entry L190A): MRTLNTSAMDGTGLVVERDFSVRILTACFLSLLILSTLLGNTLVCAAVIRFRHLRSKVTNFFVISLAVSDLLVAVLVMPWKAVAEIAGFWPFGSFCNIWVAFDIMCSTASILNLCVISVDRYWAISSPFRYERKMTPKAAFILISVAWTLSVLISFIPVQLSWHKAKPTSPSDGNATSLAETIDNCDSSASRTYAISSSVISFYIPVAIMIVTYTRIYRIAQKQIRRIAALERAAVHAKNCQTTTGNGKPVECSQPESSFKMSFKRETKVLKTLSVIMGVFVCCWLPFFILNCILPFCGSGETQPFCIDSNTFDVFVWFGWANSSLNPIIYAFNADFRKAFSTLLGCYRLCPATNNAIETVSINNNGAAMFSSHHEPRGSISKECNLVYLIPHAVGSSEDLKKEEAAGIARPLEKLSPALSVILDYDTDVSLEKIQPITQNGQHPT
smiles,measurement,setting,value
"Cc1ccc2c(c1)[C@@H]1c3cc(O)c(O)cc3OC[C@H]1NC2.Cl (racemic) [5a, (±)-Trans-11-methyl-2,3-dihydroxy-6a,7,8,12b-tetrahydro-6H-chromeno[3,4-c]isoquinoline hydrobromide]",decrease in D1 affinity compared to 2,[1],nearly six-fold decrease
same,affinity at mutant L190A of the D1 dopamine receptor,[2],significantly increased affinity
"Cl.Oc1cc2c(cc1O)[C@H]1c3cc(C(F)(F)F)ccc3CN[C@@H]1CO2 (racemic) [5d, (±)-Trans-2,3-dihydroxy-11-trifluoromethyl-6a,7,8,12b-tetrahydro-6H-chromeno[3,4-c]isoquinoline hydrochloride]",decrease in D1 affinity compared to the methyl substituted compound 5a,[1]; relative to 5a,almost four-fold decrease
same,decrease in D1 affinity compared to 2,[1],22 fold
"Oc1cc2c(cc1O)[C@H]1c3ccccc3CN[C@@H]1CC2 (relative stereo) [compound 1, trans-10,11-dihydroxy-5,6,6a,7,8,12b-hexahydrobenzo[a]phenanthridine]",blood flow in the prefrontal cortex,[3],increase blood flow in the prefrontal cortex
same,dopamine D1 agonist character,[4],potent dopamine D1 full agonist
same,working memory,[5],improve working memory in aged monkeys
same,therapeutic potential in an in vivo model of Parkinson's disease,[6],significant therapeutic potential
same,affinity for D1-like receptors over D2-like receptors,[7],ten-fold higher affinity
"Oc1cc2c(cc1O)C1c3ccccc3CNC1CO2 (single isomer, unassigned; (+)) [(+)-2]",efficacy for activation of the D1 receptor,[4]; compared with dopamine,higher efficacy than dopamine
Cc1ccc2c(c1)[C@@H]1c3cc(O)c(O)cc3CC[C@H]1NC2 [compound 3],D1 affinity in comparison to DHX,[8],did not significantly reduce the affinity
same,affinity at mutant L190A of the D1 dopamine receptor,[2],but not for 3
CCc1ccc2c(c1)[C@@H]1c3cc(O)c(O)cc3CC[C@H]1NC2 [compound 4],D1 affinity in comparison to DHX,[8],affinity lower than the unsubstituted compound
